Experimental data: US8580820B2, “Tubulysin compounds with high cytotoxicity, pharmaceutical compositions thereof, and method of use thereof” (Kemtech S.r.L., priority 2009, dated 2013)
Read-outs that look alike come from different tables or passages of the source.

Legend:
[1] = system: HT29 (adenocarcinoma of human colon); assay: Cytotoxicity in vitro, cellular viability (ATPlite Perkin Elmer test), HT29; type: cell-based; parameters: cellular viability (ATPlite Perkin Elmer test): unit not given here; conditions: for GI50: Homo sapiens, HT-29, 72 hours; for cellular viability (ATPlite Perkin Elmer test): 72 hours
Method: (§1) The cytotoxic effects of the compounds of formula (A) were evaluated by treating […] with different concentrations of the compounds under screening. The following cell lines were used: A2780 (human ovarian carcinoma), HL60 (human leukaemia), C6 (rat glioma) and HT29 (adenocarcinoma of human colon). The cell lines have been obtained by ECACC (European Collection of Cell Cultures).
(§2) The cell lines have been cultured in 75 cm^2 flasks with culture medium DMEM (Dulbecco's Medium Eagle Modified, Sigma Aldrich®) and the following additives (Sigma Aldrich®): L-Glutamine 2 mM, 10% Fetal Bovine Serum, Penicillin/-Streptomycin, Fungizone, Gentamycin. The incubation was carried out in modified atmosphere incubators (37° C., 5% CO2). When cell confluence was obtained, the cells were propagated by dilution in a ratio 1:3/1:5 by using a Trypsin-EDTA 1× solution and then transferred into 96 well plates in the suitable culture medium. The cells were then treated for 72 hours with different concentrations (10^−13+10^−4 M) of the compounds under examination. For the tests in vitro the compounds obtained in the examples 1.15 and 6.8 were solubilised in dimethylsulphoxide (DMSO). All the tests were performed with a constant DMSO concentration equal to 0.1% by weight.
(§3) In order to control the cellular viability, the ATPlite test (Perkin Elmer) was used. The APTlite test evaluates the ATP production. APT is a marker of cellular viability as it is present in all the metabolically active cells. The test’ is based on the chemiluminiscence due to the ATP reaction with the luciferase and the D-luciferin. The emitted light is proportional to the ATP concentration. For the reading the Victor 3 instrument by Perkin Elmer was used.
(§4) Four readings were taken for each sample solution. The results (average values) for the cytotoxicity of the compounds of formula (A) obtained in examples 1.15 and 6.8 are reported respectively in Tables 1 and 2. It is noted that the GI50 values determined by means of the cellular viability values are lower than 2 nM. This confirms the high cytotoxicity of the compound of formula (A).

[2] = system: A2780, HL60, C6 and HT29 cell lines; assay: Cytotoxicity in vitro, summary over the cell lines of example 14; type: cell-based, human; rat; conditions: all cell lines of Tables 1 and 2; read-out: GI50 values determined by means of the cellular viability values
Method: as §1
as §2, with “All the tests were performed with a constant DMSO concentration equal to 0.1% by weight.” left out
In order to control the cellular viability, the ATPlite test (Perkin Elmer) was used. […] For the reading the Victor 3 instrument by Perkin Elmer was used.
Four readings were taken for each sample solution. […]

[3] = system: A2780 (human ovarian carcinoma); assay: Cytotoxicity in vitro, cellular viability (ATPlite Perkin Elmer test), A2780; type: cell-based; parameters: cellular viability (ATPlite Perkin Elmer test): unit not given here; conditions: 72 hours; for GI50: Homo sapiens
Method: as §1, §2, §3, §4

[4] = system: HL60 (human leukaemia); assay: Cytotoxicity in vitro, cellular viability (ATPlite Perkin Elmer test), HL60; type: cell-based; parameters: cellular viability (ATPlite Perkin Elmer test): unit not given here; conditions: HL60, 72 hours
Method: as §1, §2, §3, §4

[5] = Cytotoxicity in vitro, cellular viability (ATPlite Perkin Elmer test), C6; type: cell-based, rat; parameters: cellular viability (ATPlite Perkin Elmer test): unit not given here; conditions: rat, C6 rat glioma cells, C6, 72 hours
Method: as §1, §2, §3, §4

[6] = system: C6 (rat glioma); assay: as above; type: cell-based; parameters: cellular viability (ATPlite Perkin Elmer test): unit not given here; conditions: C6, 72 hours
Method: as §1, §2, §3, §4

[7] = value is GI50 multiplied by 10^9, Table 1

CCC(C)[C@H](NC(=O)[C@H]1CCCCN1C)C(=O)N(Cc1ccccc1)[C@H](C[C@@H](OC(C)=O)c1nc(C(=O)N[C@@H](Cc2ccccc2)C[C@H](C)C(=O)O)cs1)C(C)C (stereo in doubt) [Example 1.15, (2S,4R)-4-(2-((1R,3R)-1-acetoxy-3-((2S,3R)—N-benzyl-3-methyl-2-(1-methylpiperidin-2-carboxamido)pentanamido)-4-methylpentyl)thiazol-4-carboxamido)-2-methyl-5-phenyl-pentanoic acid]
GI50 [1, 7]: 0.312 nM | cellular viability (ATPlite Perkin Elmer test) ([1]; compound 10^−4 mole/litre): 15.14 | cellular viability (ATPlite Perkin Elmer test) ([1]; compound 10^−5 mole/litre): 14.55 | cellular viability (ATPlite Perkin Elmer test) ([1]; compound 10^−6 mole/litre): 15.43 | cellular viability (ATPlite Perkin Elmer test) ([1]; compound 10^−7 mole/litre): 16.85 | cellular viability (ATPlite Perkin Elmer test) ([1]; compound 10^−8 mole/litre): 17.55 | cellular viability (ATPlite Perkin Elmer test) ([1]; compound 10^−9 mole/litre): 20.77 | cellular viability (ATPlite Perkin Elmer test) ([1]; compound 10^−10 mole/litre): 99.08 | cellular viability (ATPlite Perkin Elmer test) ([1]; compound 10^−11 mole/litre): 102.2 | cellular viability (ATPlite Perkin Elmer test) ([1]; compound 10^−12 mole/litre): 103.2 | cellular viability (ATPlite Perkin Elmer test) ([1]; compound 10^−13 mole/litre): 104.5 | GI50 [2]: < 2 nM | GI50 ([3]; value is GI50 multiplied by 10^9, Table 1, read-out: GI50 × 10^9): 0.0018 nM | cellular viability (ATPlite Perkin Elmer test) ([3]; compound 10^−4 mole/litre): 3.10 | cellular viability (ATPlite Perkin Elmer test) ([3]; compound 10^−5 mole/litre): 7.23 | cellular viability (ATPlite Perkin Elmer test) ([3]; compound 10^−6 mole/litre): 9.60 | cellular viability (ATPlite Perkin Elmer test) ([3]; compound 10^−7 mole/litre): 10.60 | cellular viability (ATPlite Perkin Elmer test) ([3]; compound 10^−8 mole/litre): 11.78 | cellular viability (ATPlite Perkin Elmer test) ([3]; compound 10^−9 mole/litre): 25.08 | cellular viability (ATPlite Perkin Elmer test) ([3]; compound 10^−10 mole/litre): 25.04 | cellular viability (ATPlite Perkin Elmer test) ([3]; compound 10^−11 mole/litre): 32.71 | cellular viability (ATPlite Perkin Elmer test) ([3]; compound 10^−12 mole/litre): 65.66 | cellular viability (ATPlite Perkin Elmer test) ([3]; compound 10^−13 mole/litre): 100.1 | GI50 × 10^9 [4, 7]: 0.0004 moles/litre | cellular viability (ATPlite Perkin Elmer test) ([4]; compound 10^−4 mole/litre): 0.47 | cellular viability (ATPlite Perkin Elmer test) ([4]; compound 10^−5 mole/litre): 2.57 | cellular viability (ATPlite Perkin Elmer test) ([4]; compound 10^−6 mole/litre): 2.99 | cellular viability (ATPlite Perkin Elmer test) ([4]; compound 10^−7 mole/litre): 2.69 | cellular viability (ATPlite Perkin Elmer test) ([4]; compound 10^−8 mole/litre): 2.94 | cellular viability (ATPlite Perkin Elmer test) ([4]; compound 10^−9 mole/litre): 3.66 | cellular viability (ATPlite Perkin Elmer test) ([4]; compound 10^−10 mole/litre): 8.29 | cellular viability (ATPlite Perkin Elmer test) ([4]; compound 10^−11 mole/litre): 22.65 | cellular viability (ATPlite Perkin Elmer test) ([4]; compound 10^−12 mole/litre): 34.26 | cellular viability (ATPlite Perkin Elmer test) ([4]; compound 10^−13 mole/litre): 98.98

CC[C@H](C)[C@H](NC(=O)[C@H]1CCCCN1C)C(=O)N(CCOC)[C@H](C[C@@H](OC(C)=O)c1nc(C(=O)N[C@@H](Cc2ccccc2)C[C@H](C)C(=O)O)cs1)C(C)C [Example 6.8, (2S,4R)-4-(2-((1R,3R)-1-acetoxy-3-((2S,3R)—N(2-methoxyethyl)-3-methyl-2-(1-methylpiperidine-2-carboxamido)pentanamido)-4-methylpentyl)thiazol-4-carboxamido)-2-methyl-5-phenylpentanoic acid]
GI50 ([1]; value is GI50 multiplied by 10^9, Table 2): 0.278 nM | cellular viability (ATPlite Perkin Elmer test) ([1]; compound 10^−4 mole/litre): 11.55 | cellular viability (ATPlite Perkin Elmer test) ([1]; compound 10^−5 mole/litre): 11.46 | cellular viability (ATPlite Perkin Elmer test) ([1]; compound 10^−6 mole/litre): 18.08 | cellular viability (ATPlite Perkin Elmer test) ([1]; compound 10^−7 mole/litre): 17.68 | cellular viability (ATPlite Perkin Elmer test) ([1]; compound 10^−8 mole/litre): 20.38 | cellular viability (ATPlite Perkin Elmer test) ([1]; compound 10^−9 mole/litre): 24.49 | cellular viability (ATPlite Perkin Elmer test) ([1]; compound 10^−10 mole/litre): 95.7 | cellular viability (ATPlite Perkin Elmer test) ([1]; compound 10^−11 mole/litre): 115.6 | cellular viability (ATPlite Perkin Elmer test) ([1]; compound 10^−12 mole/litre): 107.5 | cellular viability (ATPlite Perkin Elmer test) ([1]; compound 10^−13 mole/litre): 108.0 | viability at 72 h ([5]; compound 10^−5 mole/litre): 20.2% | viability at 72 h ([5]; compound 10^−6 mole/litre): 19.6% | cellular viability (ATPlite Perkin Elmer test) ([6]; compound 10^−4 mole/litre): 19.10 | cellular viability (ATPlite Perkin Elmer test) ([6]; compound 10^−7 mole/litre): 20.70 | cellular viability (ATPlite Perkin Elmer test) ([6]; compound 10^−8 mole/litre): 25.60 | cellular viability (ATPlite Perkin Elmer test) ([6]; compound 10^−9 mole/litre): 39.57 | cellular viability (ATPlite Perkin Elmer test) ([6]; compound 10^−10 mole/litre): 64.15 | cellular viability (ATPlite Perkin Elmer test) ([6]; compound 10^−11 mole/litre): 96.68 | cellular viability (ATPlite Perkin Elmer test) ([6]; compound 10^−12 mole/litre): 99.13 | cellular viability (ATPlite Perkin Elmer test) ([6]; compound 10^−13 mole/litre): 101.2 | GI50 ([6]; Rattus norvegicus, value is GI50 multiplied by 10^9, Table 2, read-out: GI50 × 10^9): 0.147 nM | GI50 [2]: < 2 nM | GI50 ([3]; value is GI50 multiplied by 10^9, Table 2, read-out: GI50 × 10^9): 1.54 nM | cellular viability (ATPlite Perkin Elmer test) ([3]; compound 10^−4 mole/litre): 3.08 | cellular viability (ATPlite Perkin Elmer test) ([3]; compound 10^−5 mole/litre): 8.41 | cellular viability (ATPlite Perkin Elmer test) ([3]; compound 10^−6 mole/litre): 9.11 | cellular viability (ATPlite Perkin Elmer test) ([3]; compound 10^−7 mole/litre): 9.11 | cellular viability (ATPlite Perkin Elmer test) ([3]; compound 10^−8 mole/litre): 22.80 | cellular viability (ATPlite Perkin Elmer test) ([3]; compound 10^−9 mole/litre): 64.56 | cellular viability (ATPlite Perkin Elmer test) ([3]; compound 10^−10 mole/litre): 106.7 | cellular viability (ATPlite Perkin Elmer test) ([3]; compound 10^−11 mole/litre): 109.7 | cellular viability (ATPlite Perkin Elmer test) ([3]; compound 10^−12 mole/litre): 104.1 | cellular viability (ATPlite Perkin Elmer test) ([3]; compound 10^−13 mole/litre): 104.0 | cellular viability (ATPlite Perkin Elmer test) ([4]; compound 10^−4 mole/litre): 0.75 | cellular viability (ATPlite Perkin Elmer test) ([4]; compound 10^−5 mole/litre): 1.22 | cellular viability (ATPlite Perkin Elmer test) ([4]; compound 10^−6 mole/litre): 1.25 | cellular viability (ATPlite Perkin Elmer test) ([4]; compound 10^−7 mole/litre): 1.14 | cellular viability (ATPlite Perkin Elmer test) ([4]; compound 10^−8 mole/litre): 1.04 | cellular viability (ATPlite Perkin Elmer test) ([4]; compound 10^−9 mole/litre): 1.36 | cellular viability (ATPlite Perkin Elmer test) ([4]; compound 10^−10 mole/litre): 3.53 | cellular viability (ATPlite Perkin Elmer test) ([4]; compound 10^−11 mole/litre): 56.38 | cellular viability (ATPlite Perkin Elmer test) ([4]; compound 10^−12 mole/litre): 102.0 | cellular viability (ATPlite Perkin Elmer test) ([4]; compound 10^−13 mole/litre): 100.9 | GI50 ([4]; Homo sapiens, HL-60, value is GI50 multiplied by 10^9, Table 2, read-out: GI50 × 10^9): 0.0108 nM
